The values below come from patent US7321027B2, “Small technetium-99m and rhenium labeled agents and methods for imaging tumors” (President and Fellows of Harvard College, priority 2000, dated 2008).

Each structure is given as a SMILES string.

In one data set the test system is B16/F0 cells. Description: Tumor-cell uptake in the presence of DTG. The format is cell-based, murine. The note with it: 37° C.; for IC50: read-out: DTG concentration at 50% maximal inhibition of complex uptake, intact B16/F0 cells, DTG as the inhibitor. The text has this: J. Labelled Compd. Radiopharm. 1994, 35, 242-244; Vilner, B. J.; John, C. S.; Bowen, W. D. Sigma-I and Sigma-2 Receptors Are Expressed in a Wide Variety of Human and Rodent Tumor Cell Lines. Cancer Res. 1995, 55, 408-413; and John, C. S.; Vilner, B. J.; Gulden, M. E.; Efange, S. M. N.; Langason, R. B.; Moody, T. W.; Bowen, W. D. Synthesis and Pharmacological Characterization of 4-[^125I]-N-(N-Benzylpiperidin-4-yl)-4-iodobenzamide: A High Affinity σ Receptor Ligand for Potential Imaging of Breast Cancer. […] Pre-incubation of the tumor cells with DTG (90 μM), 30 min prior to the uptake experiments with the ^99mTc-complexes, yields a lower tumor-cell uptake for complexes Tc-(Compound A) (29% less), Tc-(Compound C) (33% less), and Tc-(Compound D) (32% less) at 37° C. (FIG. 4). Additional dose-response experiments conducted with intact B16/F0 cells at 37° C. with Tc-(Compound C) and DTG as the inhibitor (FIG. 3) show a DTG concentration-dependent decrease in the uptake of the complex.
The effect of the inhibitor DTG on cell uptake of these complexes was studied by addition of the inhibitor at various concentrations to the cell suspension 30 min prior to addition of the ^99mTc-complexes. Fresh DTG stock solutions were made by dissolving DTG (3.0 mg, 12.5 μmol) in 0.38 mL PBS and 0.12 mL hydrochloric acid (0.1 N) and subjecting the mixture to ultrasound until a clear solution was obtained, followed by the addition of 0.50 mL FBS to produce a neutral solution at pH 7.4. The stock solutions were diluted by an appropriate amount of S-MEM, and aliquots between 5 μL and 25 μL were added to the cell suspension such that the final concentration of DTG was between 0.02 μM and 120 μM in a total cell suspension volume of 350 μL.

Data set [1] is described as follows: Determination of lipophilicity and pKa values by HPLC. Type of data set: physicochemical. To be noted: HPLC method. The method, then:
The physicochemical parameters of the rhenium complexes, i.e. lipophilicity log P, log D(pH 7.4), and pKa (Table 2) were determined using HPLC methods (Braumann, T.; Grimme, L. H. Determination of Hydrophobic Parameters for Pyridazinone Herbicides by Liquid-Liquid Partition and Reversed-Phase High-Performance Liquid Chromatography. J. Chromatogr. 1981, 206, 7-15; Stytli, C.; Theobald, A. E. Determination of Ionization Constants of Radiopharmaceuticals in Mixed Solvents by HPLC. Appl. Radiat. Isot., 1987, 38, 701-708; Johannsen, B.; Scheunemann, M.; Spies, H.; Brust, P.; Wober, J.; Syhre, R.; Pietzsch, H.-J. Technetium(V) and Rhenium(V) Complexes for 5-HT2A Serotonin Receptor Binding: Structure-Affinity Considerations. Nucl. Med. Biol., 1996, 23, 429-438; and Johannsen, B.; Berger, R.; Brust, P.; Pietzsch, H.-J; Scheunemann, M.; Seifert, S.; Spies, H.; Syhre, R. Structural Modification of Receptor-Binding Technetium-99m Complexes in Order to Improve Brain Uptake. Eur. J. Nucl. Med. 1997, 24, 316-319). […] Since log D(pH 7.4) is a composite measure of log P and pKa, the log D(PH 7.4) of Re-Compound B (1.9) is also higher than that of Re-Compound A (1.1). […] With pKa values >9 for complexes Re-Compound C and Re-Compound D, the resulting low log D(PH 7.4) values of −0.5 (Re-Compound C) and 0.7 (Re-Compound D) are not surprising, since the complexes would exist in a protonated form at pH 7.4.
Determination of Lipophilicity and pKa Values. The lipophilicity and pKa values of all complexes were determined using HPLC methods described previously (Stylli, C.; Theobald, A. E. Determination of Ionization Constants of 4 Radiopharmaceuticals in Mixed Solvents by HPLC. Appl. Radiat. Isot., 1987, 38, 701-708; Johannsen, B.; Scheunemann, M.; Spies, H.; Brust, P.; Wober, J.; Syhre, R.; Pietzsch, H.-J. Technetium(V) and Rhenium(V) Complexes for 5-HT2A Serotonin Receptor Binding: Structure-Affinity Considerations. Nucl. Med. Biol., 1996, 23, 429-438; and Johannsen, B.; Berger, R.; Brust, P.; Pietzsch, H.-J.; Scheunemann, M.; Seifert, S.; Spies, H.; Syhre, R. Structural Modification of Receptor-Binding Technetium-99m Complexes in Order to Improve Brain Uptake. Eur. J. Nucl. Med. 1997, 24, 316-319). […] The mobile phase was acetonitrile:phosphate buffer (0.01 M), 3:1, v/v, with the aqueous buffer adjusted to the desired pH between 3 and 11. The capacity factor (k′) was calculated for each determination (Braumann, T.; Grimme, L. H. Determination of Hydrophobic Parameters for Pyridazinone Herbicides by Liquid-Liquid Partition and Reversed-Phase High-Performance Liquid Chromatography. J. Chromatogr. 1981, 206, 7-15; El Tayer, N.; van der Waterbeemd, H.; Testa, B. Lipophilicity Measurements of Protonated Basic Compounds by Reversed-Phase High-Performance Liquid Chromatography. II. Procedure for the Determination of a Lipophilic Index Measured by Reversed-Phase High Performance Liquid Chromatography. J. Chromatogr. 1985, 320, 305-312; and Minick, D. J.; Frenz, J. H.; Patrick, M. A.; Brent, D. A. A Comprehensive Method for Determining Hydrophobicity Constants by Reversed-Phase High-Performance Liquid Chromatography. J. Med. Chem., 1988, 31, 1923-1933) and the partition coefficient at a given pH (D or log D) were calculated from the equation: log D=a log k′+b where the parameters a and b are predetermined using standard amines. The fitted points of inflection from the sigmoidal DHPLC/pH profiles permit calculation of the pKHPLC(Stylli, C.; Theobald, A. E. Determination of Ionization Constants of Radiopharmaceuticals in Mixed Solvents by HPLC. Appl. Radiat. Isot., 1987, 38, 701-708). The aqueous ionization constants pKa were calculated from the pKHPLC values after correction with a predetermined correction factor obtained using standard amine compounds. Log P values of the neutral complexes were estimated from the respective upper plateau of the sigmoidal log D/pH curve in the alkaline range.

Data set [2] deals with B16/F0 murine melanoma cells. Description: In-vitro tumor-cell uptake, melanoma cells. Type of data set: cell-based. The method, then: In-Vitro Tumor-Uptake Studies. Tumor-cell uptake studies in B16/F0 murine melanoma cells were performed with complexes Tc-(Compound A-D and H-M) at 37° C. and 4° C. Additionally, tumor-cell uptake of complex Tc-(Compound A) was investigated in another rapidly dividing MCF-7 human breast cancer cell line.
In-Vitro Cell Studies. Murine B16/F0 melanoma cells and human MCF-7 breast cancer cells were obtained from American Type Culture Collection, Manassas Va., (ATCC) and were grown in T-175 flasks in 14 mL Dulbecco's Modified Eagle Medium (D-MEM; Gibco, Life Technology, Gaithersburg, Md.) containing 4500 mg/L D-glucose, L-glutamine, and pyridoxine hydrochloride, 110 mg/L sodium pyruvate, 10% fetal bovine serum (FBS), 0.2% gentamicin and 0.5% penicillin-streptomycin solution. All cells were harvested from cell culture flasks by trypsinization with 1 mL trypsin-EDTA solution (0.25% trypsin, 1 mM EDTA×4 Na) (Gibco). After being washed with 12 mL Dulbecco's Phosphate-Buffered Saline (PBS) (Gibco), pH 7.2 (Ca^2+- and Mg^2+-free; g/L KCl, 0.20; KH2PO4, 0.20; NaCl, 8.00; Na2HPO4, 1.15), the cells were counted and resuspended in 8 mL S-MEM (Gibco) (Ca^2+ free, with reduced Mg^2+ content) and stored at 4° C. until use.
For in-vitro tumor-cell accumulation studies, 5×10^6 cells in polypropylene test tubes were incubated at 37° C. or 4° C., with intermittent agitation with 1-2 μCi (5 μL) ^99mTc-complex Tc-(Compound A-D) in a total volume of 350 μL S-MEM. At appropriate time intervals the tubes were vortexed and 8-μL samples were layered on 350 μL cold FBS in a 400-μL Eppendorf microcentrifuge tube. After centrifugation at 15,000 rpm for 2 min, the tubes were frozen in a dry ice-acetone bath. While still frozen, the bottom tip of the microcentrifuge tube containing the cell pellet was cut and placed in a counting tube. The remaining portion of the tube with the supernatant was placed in a separate counting tube. Both fractions were counted for radioactivity in a γ-counter (WALLAC, 1480 WIZARD 3″™). The amount of supernatant in the cell pellet was determined to be <1% in separate experiments. The percentage cell uptake of the ^99mTc-complex was calculated as: % uptake=[cpm(pellet)]/[cpm(pellet)+cpm(supernatant)]×100

For the molecule `CCN(CC)CCN1CC[S][Tc]2(=[O])[S]CC[N]2C(=O)C1` (stereo not shown) [Tc-(Compound A)], the IC50 in the data set with B16/F0 cells turned out to be 21 µM.
As to `CCCCN(CCCC)CCCN1CC[S][Re]2(=[O])[S]CC[N]2C(=O)C1` (stereo not shown) [Re-Compound D, [ReOAADT]-C3—NBu2], the “log D(pH 7.4)” value in data set [1] stood at 0.7.
For `CCN(CC)CCCN1CC[S][Tc]2(=[O])[S]CC[N]2C(=O)C1` (stereo not shown) [Tc-(Compound C)], the IC50 in the data set with B16/F0 cells was 49 µM.
`CCCCN(CCCC)CCCN1CC[S][99Tc]2(=[O])[S]CC[N]2C(=O)C1` (stereo not shown) [Tc-(Compound D)]: in data set [2] (4° C. vs 37° C.), the “decrease in cell uptake, incubation temperature from 37° C. to 4° C.” value came out at 23%. Further, in data set [2] (37° C., B16/F0 cell line), the maximal cell uptake came out at 68%. Further, in the data set with B16/F0 cells (DTG 90 μM, 30 min prior), the “lower tumor-cell uptake after pre-incubation with DTG” value was determined as 32%.
In the case of `CCCCN(CCCC)CCCN1CC[S][Tc]2(=[O])[S]CC[N]2C(=O)C1` (stereo not shown) [Tc-(Compound D)], in the data set with B16/F0 cells, the IC50 is 52 µM.
Regarding `CCN(CC)CCN1CC[S][Re]2(=[O])[S]CC[N]2C(=O)C1` (stereo not shown) [Re-Compound A, [ReOAADT]-C2—NEt2], in data set [1], the lipophilicity (log P) was found to be 1.6, the pKa is recorded as 7.7 and the “log D(pH 7.4)” value was found to be 1.1.
Turning to `CCCCN(CCCC)CCN1CC[S][Re]2(=[O])[S]CC[N]2C(=O)C1` (stereo not shown) [Re-Compound B, [ReOAADT]-C2—NBu2], in data set [1], the lipophilicity (log P) is listed as 3.3, the pKa is on record as 7.7 and the “log D(pH 7.4)” value stood at 1.9.
